ChEMBL document CHEMBL1152200, “Synthesis and biological evaluation of novel sulfonyl-naphthalene-1,4-diols as FabH inhibitors” (Bioorg Med Chem Lett, 2008)
≈ marks a conversion by molar mass, not a printed value. Calls of active or inactive are those of the source. The calls are words filed in the database; no cut-off is given here.

What was measured:
[1] = Inhibition of Escherichia coli FabH
[2] = target: T1, Beta-ketoacyl-ACP-synthase III (Plasmodium falciparum, UniProt O77078); experiment: Inhibition of Plasmodium falciparum FabH
T1 sequence (O77078 whole entry): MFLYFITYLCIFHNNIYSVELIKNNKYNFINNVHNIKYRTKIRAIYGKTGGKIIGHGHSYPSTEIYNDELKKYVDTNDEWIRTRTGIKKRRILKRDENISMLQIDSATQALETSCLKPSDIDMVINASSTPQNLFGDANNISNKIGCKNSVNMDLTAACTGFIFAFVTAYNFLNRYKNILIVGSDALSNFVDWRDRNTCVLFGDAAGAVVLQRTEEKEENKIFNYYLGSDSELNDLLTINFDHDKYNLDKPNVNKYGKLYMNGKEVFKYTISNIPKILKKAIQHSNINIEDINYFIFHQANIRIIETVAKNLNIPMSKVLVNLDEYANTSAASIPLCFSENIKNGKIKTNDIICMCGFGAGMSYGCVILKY

[3] = target: T2, Mycobacterial beta-ketoacyl-[acyl-carrier-protein] synthase III (Mycobacterium tuberculosis, UniProt P9WNG3); experiment: Inhibition of Mycobacterium tuberculosis FabH
T2 sequence (P9WNG3 whole entry): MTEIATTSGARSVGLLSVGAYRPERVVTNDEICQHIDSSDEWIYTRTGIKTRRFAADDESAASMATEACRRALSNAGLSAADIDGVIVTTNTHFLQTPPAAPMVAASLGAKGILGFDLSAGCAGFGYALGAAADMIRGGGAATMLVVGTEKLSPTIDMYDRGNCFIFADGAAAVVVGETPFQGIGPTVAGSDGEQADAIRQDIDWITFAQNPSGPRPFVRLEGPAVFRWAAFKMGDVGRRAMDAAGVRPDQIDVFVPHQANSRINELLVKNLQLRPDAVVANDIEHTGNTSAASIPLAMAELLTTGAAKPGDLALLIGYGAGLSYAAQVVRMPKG

[4] = tested on: Escherichia coli; experiment: Inhibition of Escherichia coli FabH assessed as restoration activity in presence of phosphate buffer after 16 hrs; design: scale not given: the % may be the effect or the level left
[5] = tested on: Escherichia coli; experiment: Antibacterial activity against Escherichia coli tolC mutant; assay type: functional
[6] = tested on: Plasmodium falciparum; experiment: Antiplasmodial activity against chloroquine-sensitive Plasmodium falciparum D6; assay type: functional, organism-based
[7] = tested on: Escherichia coli; experiment: Inhibition of Escherichia coli FabH at below 10 uM
[8] = target: T3, Beta-ketoacyl-ACP-synthase III (Plasmodium falciparum) (UniProt O77078); experiment: Inhibition of Plasmodium falciparum FabH at below 100 uM
T3 sequence (whole entry): T1 sequence (O77078 whole entry)

| SMILES | IC50 [1] [nM] | IC50 [2] [nM] | IC50 [3] [nM] | Activity [4] [%] | MIC99 [5] [µg/mL] | IC50 [6] [µg/mL] | Activity [7] | Activity [8] |
| --- | --- | --- | --- | --- | --- | --- | --- | --- |
| Cc1ccc(S(=O)(=O)c2cc(O)c3ccccc3c2O)cc1 | 13.6 | 73.6 | 0.61 | 90 | 14.1 (≈ 44.9 µM) | 7.69 (≈ 24.5 µM) | – | – |
| Cc1ccc(S(=O)(=O)c2ccc3ccccc3c2)cc1 | > 10000 | – | 138 | – | > 90 | 8.74 (≈ 31 µM) | inactive | inactive |
| O=S(=O)(c1ccc(Cl)cc1)c1cc(O)c2ccccc2c1O | 8.8 | 129 | 3.61 | – | – | 3.23 (≈ 9.65 µM) | – | – |
| Cc1ccc(SC2=CC(=O)c3ccccc3C2=O)cc1 | – | – | 112 | – | – | – | inactive | inactive |
| Cc1ccc(S(=O)(=O)c2cc(O)c3cc4ccccc4cc3c2O)cc1 | 112 | 341 | 8.47 | – | – | – | – | – |
| CC(=O)Nc1ccc(S(=O)(=O)c2cc(O)ccc2O)cc1 | > 10000 | – | 31.4 | – | > 90 | 3.96 (≈ 12.9 µM) | inactive | inactive |
| Cc1ccc(S(=O)(=O)c2cc(O)ccc2O)cc1 | > 10000 | – | 34.4 | – | > 90 | 31.3 (≈ 119 µM) | inactive | inactive |
| CS(=O)(=O)c1cc(O)c2ccccc2c1O | 87.3 | 27.4 | 3.53 | – | 9.7 (≈ 40.7 µM) | – | – | – |
| Cc1ccc(S(=O)(=O)C2=CC(=O)c3ccccc3C2=O)cc1 | 187 | 1420 | 1.99 | – | – | – | – | – |
| O=C(O)CCS(=O)(=O)c1cc(O)c2ccccc2c1O | 96.5 | 46.5 | 3.53 | – | – | – | – | – |
| CC(=O)Nc1ccc(S(=O)(=O)c2cc(O)c3ccccc3c2O)cc1 | 11.8 | 29.6 | 3.76 | – | 12.3 (≈ 34.4 µM) | 4.98 (≈ 13.9 µM) | – | – |
| O=S(=O)(c1ccc2ccccc2c1)c1cc(O)c2ccccc2c1O | 15.4 | 393 | 1.49 | – | – | – | – | – |
| O=S(=O)(c1ccccc1)c1cc(O)c2ccccc2c1O | 21.2 | 279 | 2.84 | – | – | – | – | – |
| CCCc1ccc(S(=O)(=O)c2cc(O)c3ccccc3c2O)cc1 | 9.7 | 72.6 | 3.09 | – | – | – | – | – |
